We go through 1 compound from PMC4700033, “Synergistic properties of cellulases from Clostridium cellulovorans in the presence of cellobiose” (AMB Express, 2016).

Assay in all cases: DNS reducing sugar assay on acid-swollen cellulose
Common to all, as to type: biochemical

The target in one assay is T1, EngK (Clostridium cellulovorans, UniProt D9SS70).
T1 construct: gene Clocel_2821
T1 sequence (D9SS70 1-892 limits assumed): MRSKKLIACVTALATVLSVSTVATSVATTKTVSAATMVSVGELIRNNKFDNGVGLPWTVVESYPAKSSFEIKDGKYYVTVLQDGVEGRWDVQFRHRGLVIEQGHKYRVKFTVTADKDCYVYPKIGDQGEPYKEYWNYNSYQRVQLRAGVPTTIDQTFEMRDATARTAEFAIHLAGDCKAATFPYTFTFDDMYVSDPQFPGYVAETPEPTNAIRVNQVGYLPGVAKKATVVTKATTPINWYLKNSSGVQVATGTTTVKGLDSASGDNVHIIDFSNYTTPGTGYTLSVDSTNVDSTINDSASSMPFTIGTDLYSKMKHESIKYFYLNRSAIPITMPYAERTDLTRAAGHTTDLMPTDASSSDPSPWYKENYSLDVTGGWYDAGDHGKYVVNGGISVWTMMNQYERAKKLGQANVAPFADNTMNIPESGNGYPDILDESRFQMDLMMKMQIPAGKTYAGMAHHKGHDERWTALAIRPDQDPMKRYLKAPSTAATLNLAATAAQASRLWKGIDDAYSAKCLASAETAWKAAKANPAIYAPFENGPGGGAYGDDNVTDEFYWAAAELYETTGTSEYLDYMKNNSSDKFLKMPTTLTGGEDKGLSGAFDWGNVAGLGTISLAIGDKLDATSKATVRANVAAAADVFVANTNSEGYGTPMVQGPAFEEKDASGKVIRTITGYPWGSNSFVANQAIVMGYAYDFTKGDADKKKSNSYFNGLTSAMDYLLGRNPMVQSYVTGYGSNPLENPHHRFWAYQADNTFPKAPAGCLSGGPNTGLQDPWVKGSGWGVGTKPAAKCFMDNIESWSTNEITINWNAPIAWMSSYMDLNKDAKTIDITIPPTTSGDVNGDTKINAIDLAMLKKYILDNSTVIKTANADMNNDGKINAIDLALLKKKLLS
To be noted: 5 mg/ml cellobiose; 0.5 % acid-swollen cellulose, 20 nmol/ml enzyme alone, 50 mM acetate pH 6.3, 2.5 mM CaCl2, 37 C; cellobiose also main product. From the text: DNS reducing sugar assay on acid-swollen cellulose on EngK

Another assay deals with T2, ExgS (Clostridium cellulovorans, UniProt D9SS72).
T2 construct: gene Clocel_2823; dockerin-bearing cellulosomal subunit
T2 sequence (D9SS72 1-727): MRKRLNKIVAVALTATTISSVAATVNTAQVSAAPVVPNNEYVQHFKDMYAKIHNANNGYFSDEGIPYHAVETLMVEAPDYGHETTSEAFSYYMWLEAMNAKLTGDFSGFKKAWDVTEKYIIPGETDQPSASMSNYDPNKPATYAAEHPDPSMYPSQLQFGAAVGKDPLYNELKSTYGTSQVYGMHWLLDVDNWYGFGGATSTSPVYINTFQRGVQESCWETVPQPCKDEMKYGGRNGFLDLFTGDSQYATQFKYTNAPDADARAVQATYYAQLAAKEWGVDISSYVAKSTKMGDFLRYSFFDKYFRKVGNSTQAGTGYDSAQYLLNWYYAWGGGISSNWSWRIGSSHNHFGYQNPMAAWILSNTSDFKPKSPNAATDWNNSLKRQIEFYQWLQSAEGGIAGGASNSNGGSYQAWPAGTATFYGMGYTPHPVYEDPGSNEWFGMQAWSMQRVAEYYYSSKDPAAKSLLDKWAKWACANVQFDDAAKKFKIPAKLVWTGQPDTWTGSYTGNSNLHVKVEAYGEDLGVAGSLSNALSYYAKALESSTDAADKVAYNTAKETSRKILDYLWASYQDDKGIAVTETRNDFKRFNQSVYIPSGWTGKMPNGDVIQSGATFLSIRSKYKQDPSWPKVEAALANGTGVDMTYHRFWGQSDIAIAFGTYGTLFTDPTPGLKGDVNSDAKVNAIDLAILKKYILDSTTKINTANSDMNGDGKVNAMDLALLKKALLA
To be noted: 5 mg/ml cellobiose; 0.5 % acid-swollen cellulose, 20 nmol/ml enzyme alone, 50 mM acetate pH 6.3, 2.5 mM CaCl2, 37 C. From the text: DNS reducing sugar assay on acid-swollen cellulose on ExgS

Another assay concerns the target T3, EngH (Clostridium cellulovorans, UniProt O65987).
T3 construct: HisTrap purified from supernatant; trigger factor tag removed by HRV-3C protease
T3 sequence (O65987 14-715): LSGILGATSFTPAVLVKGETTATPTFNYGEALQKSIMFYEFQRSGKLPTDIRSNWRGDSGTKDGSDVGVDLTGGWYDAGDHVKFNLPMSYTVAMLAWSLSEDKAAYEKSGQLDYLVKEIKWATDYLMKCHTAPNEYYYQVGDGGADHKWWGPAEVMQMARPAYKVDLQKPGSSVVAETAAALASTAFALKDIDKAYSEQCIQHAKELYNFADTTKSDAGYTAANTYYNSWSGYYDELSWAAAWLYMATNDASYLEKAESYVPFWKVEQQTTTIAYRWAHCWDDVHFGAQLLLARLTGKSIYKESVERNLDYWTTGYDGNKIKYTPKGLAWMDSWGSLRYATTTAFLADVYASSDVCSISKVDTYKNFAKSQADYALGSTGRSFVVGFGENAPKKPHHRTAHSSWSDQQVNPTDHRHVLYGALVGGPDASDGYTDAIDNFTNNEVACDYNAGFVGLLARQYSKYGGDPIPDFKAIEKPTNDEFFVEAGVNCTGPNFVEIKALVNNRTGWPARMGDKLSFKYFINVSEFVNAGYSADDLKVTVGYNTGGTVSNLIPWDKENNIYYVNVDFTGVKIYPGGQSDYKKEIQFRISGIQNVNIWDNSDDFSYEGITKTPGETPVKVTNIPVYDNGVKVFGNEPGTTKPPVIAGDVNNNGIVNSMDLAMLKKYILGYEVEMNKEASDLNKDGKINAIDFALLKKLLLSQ
The following applies: 5 mg/ml cellobiose; 0.5 % acid-swollen cellulose, 20 nmol/ml enzyme alone, 50 mM acetate pH 6.3, 2.5 mM CaCl2, 37 C. From the text: DNS reducing sugar assay on acid-swollen cellulose on EngH

The structures appear in SMILES notation.

Turning to `OC[C@H]1O[C@@H](O[C@H]2[C@H](O)[C@@H](O)C(O)O[C@@H]2CO)[C@H](O)[C@@H](O)[C@@H]1O` (stereo partly drawn) [cellobiose], the figures for the “Inhibition rate (%)” value at EngK, on ExgS and on EngH were 90.1%, 98.5% and 98.7%, respectively.
